Measured values published in article PMC9430628 (Microbiology Spectrum, 2022).

Experiments:
[1] = tested on: rNA (N-acyl-L-amino acid amidohydrolase NA); assay: HPLC of OTalpha formed, Michaelis-Menten nonlinear fit; assay type: biochemical, Stenotrophomonas sp. CW117; settings: PBS pH 7.2, 42 °C, 6 h; OTA 15-65 μg/L
[2] = tested on: T1, rADH3 (amidohydrolase ADH3); settings: conditions not given here (as in the authors' earlier paper); cited from earlier work
T1 construct: gene H7691_12935

Structure (SMILES): C[C@@H]1Cc2c(Cl)cc(C(=O)N[C@@H](Cc3ccccc3)C(=O)O)c(O)c2C(=O)O1 [Ochratoxin A]
- Km [1]: 3.8 µM
- Km [2]: 0.039 µM
